Results published in ChEMBL document CHEMBL1155060, “Discovery of brain penetrant, soluble, pyrazole amide EP1 receptor antagonists” (Bioorg Med Chem Lett, 2008).
Converted amounts (≈) assume the structure as drawn.

Molecular target: T1, Prostaglandin E2 receptor EP1 subtype (Homo sapiens, UniProt P34995)
T1 sequence (P34995 whole entry): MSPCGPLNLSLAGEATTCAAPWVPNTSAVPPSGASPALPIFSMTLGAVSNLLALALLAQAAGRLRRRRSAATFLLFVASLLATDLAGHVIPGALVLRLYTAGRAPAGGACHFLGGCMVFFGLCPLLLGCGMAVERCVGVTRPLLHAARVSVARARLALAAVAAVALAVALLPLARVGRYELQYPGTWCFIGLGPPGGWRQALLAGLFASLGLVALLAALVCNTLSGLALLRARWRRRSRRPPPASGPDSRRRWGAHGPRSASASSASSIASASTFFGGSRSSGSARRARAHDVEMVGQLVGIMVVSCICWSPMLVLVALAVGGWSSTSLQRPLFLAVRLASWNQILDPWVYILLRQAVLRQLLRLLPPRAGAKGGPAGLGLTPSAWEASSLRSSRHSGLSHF
Experiment: Antagonist activity of human PGE2 receptor expressed in CHOK1 cells assessed as inhibition of intracellular calcium mobilisation by FLIPR assay
Format: functional, cell-based, CHO-K1
Settings: not given

Structure (SMILES)	Ki
Cc1cc(NC(=O)c2ccc3c(c2)CCNC3)nn1Cc1cc(Cl)ccc1OCC(C)C	126 nM
Cc1cc(NC(=O)c2ccc(C3CCCN3)cc2)nn1Cc1cc(Cl)ccc1OCC(C)C (stereo not given)	100 nM
CCN1CCc2ccc(C(=O)Nc3cc(C)n(Cc4cc(Cl)ccc4OCC(C)C)n3)cc2CC1	50.1 nM
Cc1cc(C(=O)Nc2ccc(CNCCO)cc2)nn1Cc1cc(Cl)ccc1OCC(C)C	100 nM
Cc1cc(C(=O)Nc2ccc(CO)cc2)nn1Cc1cc(Cl)ccc1OCc1ccccc1	39.8 nM
Cc1cc(C(=O)Nc2ccc(CN(CCO)CCO)cc2)nn1Cc1cc(Cl)ccc1OCC(C)C	79.4 nM

Tested on: not listed separately
Experiment: Solubility in fasted state simulated intestinal fluid after 0.5 hrs
Format: physicochemical
Settings: not given

Structure (SMILES)	solubility at 0.5 h
Cc1cc(NC(=O)c2ccccc2)nn1Cc1cc(Cl)ccc1OCc1ccccc1	38 µg/mL (≈ 88 µM)

Tested on: not listed separately
Experiment: Lipophilicity, log D of the compound
Format: physicochemical
Settings: octanol/water

Structure (SMILES)	logD
Cc1cc(NC(=O)c2ccccc2)nn1Cc1cc(Cl)ccc1OCc1ccccc1	> 3.7
Cc1cc(C(=O)O)nn1Cc1cc(Cl)ccc1OCc1ccccc1	1
Cc1cc(C(=O)Nc2ccccc2)nn1Cc1cc(Cl)ccc1OCc1ccccc1	> 3.7

Tested on: not listed separately
Experiment: Solubility in water after 0.5 hrs
Format: physicochemical
Settings: not given

Structure (SMILES)	solubility at 0.5 h
Cc1cc(NC(=O)c2ccccc2)nn1Cc1cc(Cl)ccc1OCc1ccccc1	2 µg/mL (≈ 4.63 µM)

Tested on: not listed separately
Experiment: Volume of distribution at steady state in rat at 1 mg/kg, iv
Format: ADME, organism-based
Design: dose 1 mg/kg, route intravenous
Settings: in vivo, read-out: Vdss

Structure (SMILES)	Vd
Cc1cc(NC(=O)c2ccccc2)nn1Cc1cc(Cl)ccc1OCc1ccccc1	4.1 L/kg

Tested on: Liver microsomes
Experiment: Metabolic stability assessed as intrinsic clearance in rat liver microsomes
Format: ADME, Microsome
Settings: not given

Structure (SMILES)	CL
Cc1cc(NC(=O)c2ccccc2)nn1Cc1cc(Cl)ccc1OCc1ccccc1	7.3 mL/min/g
Cc1cc(C(=O)Nc2ccccc2)nn1Cc1cc(Cl)ccc1OCc1ccccc1	12 mL/min/g

Tested on: not listed separately
Experiment: Blood clearance in rat at 1 mg/kg, iv
Format: ADME, organism-based
Design: dose 1 mg/kg, route intravenous
Settings: not given

Structure (SMILES)	clearance
Cc1cc(NC(=O)c2ccccc2)nn1Cc1cc(Cl)ccc1OCc1ccccc1	50 mL/min/kg

Tested on: not listed separately
Experiment: Half life in rat at 1 mg/kg, iv
Format: ADME, organism-based
Design: dose 1 mg/kg, route intravenous
Settings: in vivo

Structure (SMILES)	half-life
Cc1cc(NC(=O)c2ccccc2)nn1Cc1cc(Cl)ccc1OCc1ccccc1	2.5 h

Tested on: not listed separately
Experiment: Solubility in simulated gastric fluid after 0.5 hrs
Format: physicochemical
Settings: not given

Structure (SMILES)	solubility at 0.5 h
Cc1cc(NC(=O)c2ccccc2)nn1Cc1cc(Cl)ccc1OCc1ccccc1	2 µg/mL (≈ 4.63 µM)

Tested on: not listed separately
Experiment: Solubility in fed state simulated intestinal fluid after 0.5 hrs
Format: physicochemical
Settings: not given

Structure (SMILES)	solubility at 0.5 h
Cc1cc(NC(=O)c2ccccc2)nn1Cc1cc(Cl)ccc1OCc1ccccc1	50 µg/mL (≈ 116 µM)

Molecular target: T1, Prostaglandin E2 receptor EP1 subtype
Experiment: Displacement of [H3PGE2 from human EP1 receptor expressed in CHOK1 cells
Format: cell-based, CHO-K1
Settings: not given

Structure (SMILES)	IC50
Cc1cc(NC(=O)c2ccc(CO)cc2)nn1Cc1cc(Cl)ccc1OCC(C)C	12.6 nM
Cc1cc(NC(=O)c2ccc3c(c2)CCNC3)nn1Cc1cc(Cl)ccc1OCC(C)C	39.8 nM
Cc1cc(NC(=O)c2ccc(C3CCCN3)cc2)nn1Cc1cc(Cl)ccc1OCC(C)C (stereo not given)	100 nM
CCN1CCc2ccc(C(=O)Nc3cc(C)n(Cc4cc(Cl)ccc4OCC(C)C)n3)cc2CC1	50.1 nM
Cc1cc(C(=O)Nc2ccc(CNCCO)cc2)nn1Cc1cc(Cl)ccc1OCC(C)C	25.1 nM
Cc1cc(C(=O)Nc2ccc(CO)cc2)nn1Cc1cc(Cl)ccc1OCc1ccccc1	6.31 nM
Cc1cc(C(=O)Nc2ccc(CN(CCO)CCO)cc2)nn1Cc1cc(Cl)ccc1OCC(C)C	15.8 nM
